{
  "source": "patent US20230233480A1",
  "about": "“TRANSDERMAL THERAPEUTIC SYSTEM FOR THE TRANSDERMAL ADMINISTRATION OF FINGOLIMOD” (LTS LOHMANN THERAPIE-SYSTEME AG, priority 2019, published 2023)",
  "origin": "cited, not measured here",
  "data": [
    {"smiles": "CCCCCCCCc1ccc(CCC(N)(CO)CO)cc1", "note": "[fingolimod, 2-amino-2-[2-(4-octylphenyl)ethyl]propane-1,3-diol]", "values": [
      {"measurement": "ratio of Cmax fingolimod phosphate/Cmax fingolimod", "setting": "humans at steady state after administration of 0.5 mg/day", "result": "about 0.5"},
      {"measurement": "accumulation of blood levels from first dose to steady state", "setting": "humans, once-daily dosing", "result": "~11", "unit": "fold"}
    ]}
  ]
}
